20 compounds from patent US9062028B2, “Bicyclic nitrogen containing heteroaryl TGR5 receptor modulators” (Bristol-Myers Squibb Company, priority 2011, dated 2015) can be followed below.

Where a name gives a salt, the structure may show the parent alone.

The target in the assay is T1, recombinant human TGR5 (Homo sapiens, UniProt Q8TDU6).
T1 construct: expressed in transfected cells
T1 sequence (Q8TDU6 1-330): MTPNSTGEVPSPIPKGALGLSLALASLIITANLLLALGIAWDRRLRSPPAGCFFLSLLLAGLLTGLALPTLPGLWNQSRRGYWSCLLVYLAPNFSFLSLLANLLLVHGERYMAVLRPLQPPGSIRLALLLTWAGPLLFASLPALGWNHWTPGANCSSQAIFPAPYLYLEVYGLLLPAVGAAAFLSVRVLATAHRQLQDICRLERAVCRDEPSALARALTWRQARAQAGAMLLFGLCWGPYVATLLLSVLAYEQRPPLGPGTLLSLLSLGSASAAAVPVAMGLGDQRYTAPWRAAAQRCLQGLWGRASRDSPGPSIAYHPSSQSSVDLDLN
The assay is described as follows: cAMP assay (cAMP accumulation, HTRF) in CHOK1 cells stably expressing TGR5. Type of assay: cell-based. The settings on record: CHOK1 cells stably expressing human TGR5, 30 minutes at RT, 1% DMSO. In outline:
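CHOK1 cells stably expressing TGR5 (text also calls it chimeric human/mouse), 0.4-0.5×10^6 cells/mL in PBS with Ca/Mg and 0.1 mM IBMX, compound 30 min at RT, 1% DMSO. cAMP by HTRF 665/620 interpolated to a standard curve; EC50 from 4-parameter fit as half-maximal increase.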
In general terms: Cyclic AMP is a second messenger, typically raised through Gs and lowered through Gi signalling.
The EC50 is the concentration at which the effect is half-maximal. As to `Cc1c(Cl)cccc1OCCCC(=O)N1CCSc2c(-c3cnn(Cc4cccc(C(=O)NCC(=O)O)c4)c3)cccc21` [Example 566, 2-(3-((4-(4-(4-(3-Chloro-2-methylphenoxy)butanoyl)-3,4-dihydro-2H-benzo[b][1,4]thiazin-8-yl)-1H-pyrazol-1-yl)methyl)benzamido)acetic acid], the EC50 came out at 35 nM.
With `Cc1cccc(OCCCC(=O)N2CCCc3c(-c4cccc(COC(=O)NCC(F)(F)C(=O)O)c4)cccc32)c1C` [Example 297, 3-((3-(1-(4-(2,3-Dimethylphenoxy)butanoyl)-1,2,3,4-tetrahydroquinolin-5-yl)benzyloxy)carbonylamino)-2,2-difluoropropanoic acid] the figure was 687 nM; with `Cc1cccc(OCCCC(=O)N2C[C@@H]3C[C@@H]3c3c(-c4cnn(Cc5cccc(C(=O)NCS(=O)(=O)O)c5)c4)cccc32)c1C` (single isomer, unassigned) [Example 238], 59 nM.
For `Cc1cccc(OCCCC(=O)N2CCCOc3c(-c4cnn(Cc5ccc(C(=O)NCCC(=O)O)cc5)c4)cccc32)c1C` [Example 142, 3-(4-((4-(5-(4-(2,3-Dimethylphenoxy)butanoyl)-2,3,4,5-tetrahydrobenzo[b][1,4]oxazepin-9-yl)-1H-pyrazol-1-yl)methyl)benzamido)propanoic acid], the 50% effective concentration (EC50) is 647 nM.
Consider `Cc1c(Cl)cccc1OCCCC(=O)N1CCSc2c(-c3cnn(Cc4cccc(C(=O)NCCS(=O)(=O)O)c4)c3)cccc21` [Example 564, 2-(3-((4-(4-(4-(3-Chloro-2-methylphenoxy)butanoyl)-3,4-dihydro-2H-benzo[b][1,4]thiazin-8-yl)-1H-pyrazol-1-yl)methyl)benzamido) ethanesulfonic acid], for which the EC50 amounted to 49 nM.
Under `Cc1cccc(OCCCC(=O)N2C[C@@H]3C[C@@H]3c3c(-c4cnn(Cc5cccc(C(=O)NCC(=O)O)c5)c4)cccc32)c1C` [Example 878, 2-(3-((4-((1aR,7bS)-3-(4-(2,3-Dimethylphenoxy)butanoyl)-1a,2,3,7b-tetrahydro-1H-cyclopropa[c]quinolin-7-yl)-1H-pyrazol-1-yl)methyl)benzamido)acetic acid] stands 42 nM.
Under `Cc1c(Cl)cccc1OCCCC(=O)N1CCCOc2c(-c3cnn(Cc4ccc(C(=O)NCS(=O)(=O)O)cc4F)c3)cccc21` [Example 719, (4-((4-(5-(4-(3-Chloro-2-methylphenoxy)butanoyl)-2,3,4,5-tetrahydrobenzo[b][1,4]oxazepin-9-yl)-1H-pyrazol-1-yl)methyl)-3-fluorobenzamido)methanesulfonic acid] stands 188 nM; under `Cc1cccc(OCCCC(=O)N2CCCc3c(-c4cnn(C(C)c5cccc(NC(=O)NCCS(=O)(=O)O)c5)c4)cccc32)c1C` (centres unmarked) [Example 82, 2-(3-(3-(1-(4-(1-(4-(2,3-Dimethylphenoxy)butanoyl)-1,2,3,4-tetrahydroquinolin-5-yl)-1H-pyrazol-1-yl)ethyl)phenyl)ureido)ethanesulfonic acid], 646 nM.
Consider `Cc1c(Cl)cccc1OCCOC(=O)N1CCSc2c(-c3cnn(Cc4cccc(OCC(=O)O)c4)c3)cccc21` [Example 375, 2-(3-((4-(4-((2-(3-Chloro-2-methylphenoxy)ethoxy)carbonyl)-3,4-dihydro-2H-benzo[b][1,4]thiazin-8-yl)-1H-pyrazol-1-yl)methyl)phenoxy)acetic acid], for which the EC50 was 188 nM.
Turning to `Cc1cccc(OCCCC(=O)N2CC3CC3c3c(-c4cnn(Cc5c(F)cc(C(=O)NCS(=O)(=O)O)cc5Cl)c4)cccc32)c1C` (centres unmarked) [Example 69B, (3-Chloro-4-((4-(3-(4-(2,3-dimethylphenoxy)butanoyl)-1a,2,3,7b-tetrahydro-1H-cyclopropa[c]quinolin-7-yl)-1H-pyrazol-1-yl)methyl)-5-fluorobenzamido)methanesulfonic acid], the EC50 came out at 50 nM.
`Cc1c(Cl)cccc1OCCCC(=O)N1C[C@@H]2C[C@@H]2c2c(-c3cnn(Cc4cccc(C(=O)NCS(=O)(=O)O)c4)c3)cccc21` (single isomer, unassigned) [Example 242]: the EC50 turned out to be 49 nM.
Regarding `Cc1c(Cl)cccc1OC(C)(C)COC(=O)N1CCCOc2c(-c3cnn(Cc4c(F)cc(C(=O)NCCC(=O)O)cc4Cl)c3)cccc21` [Example 808, 3-(3-Chloro-4-((4-(5-((2-(3-chloro-2-methylphenoxy)-2-methylpropoxy)carbonyl)-2,3,4,5-tetrahydrobenzo[b][1,4]oxazepin-9-yl)-1H-pyrazol-1-yl)methyl)-5-fluorobenzamido)propanoic acid], the EC50 is 1340 nM.
Take `Cc1c(Cl)cccc1OCCCC(=O)N1C[C@@H]2C[C@@H]2c2c(-c3cnn(Cc4cccc(N5C(=O)[C@H](CCC[N+](C)(C)C)N(C)C5=O)c4)c3)cccc21` [Example 352, 3-((S)-1-(3-((4-((1aR,7bS)-3-(4-(3-Chloro-2-methylphenoxy)butanoyl)-1a,2,3,7b-tetrahydro-1H-cyclopropa[c]quinolin-7-yl)-1H-pyrazol-1-yl)methyl)phenyl)-3-methyl-2,5-dioxoimidazolidin-4-yl)-N,N,N-trimethylpropan-1-aminium, TFA salt]: the EC50 is 196 nM.
With `Cc1cccc(OCCCC(=O)N2C[C@@H]3C[C@@H]3c3c(-c4cnn(Cc5cccc(NC(=O)NCC(=O)O)c5)c4)cccc32)c1C` (single isomer, unassigned) [Example 250] the figure was 29 nM; with `Cc1c(Cl)cccc1OCCOC(=O)N1CC(O)COc2c(-c3cnn(Cc4c(F)cc(C(=O)O)cc4Cl)c3)cccc21` (centres unmarked) [Example 334, 3-Chloro-4-((4-(5-((2-(3-chloro-2-methylphenoxy)ethoxy)carbonyl)-3-hydroxy-2,3,4,5-tetrahydrobenzo[b][1,4]oxazepin-9-yl)-1H-pyrazol-1-yl)methyl)-5-fluorobenzoic acid], 1260 nM.
With `Cc1cccc(OCCOC(=O)N2CCOc3c(-c4cnn(Cc5ccc(C(=O)O)cc5)c4)cccc32)c1C` [Example 28, 4-((4-(4-((2-(2,3-Dimethylphenoxy)ethoxy)carbonyl)-3,4-dihydro-2H-benzo[b][1,4]oxazin-8-yl)-1H-pyrazol-1-yl)methyl)benzoic acid] the figure was 2860 nM; with `Cc1cccc(OCCCC(=O)N2C[C@H]3C[C@H]3c3c(-c4cnn(Cc5cccc(NC(=O)NCCC(=O)O)c5)c4)cccc32)c1C` (single isomer, unassigned) [Example 249], 660 nM.
Regarding `Cc1cccc(OCCCC(=O)N2CCCc3c(-c4cccc(COC(=O)NCC(C)C(=O)O)c4)cccc32)c1C` (centres unmarked) [Example 270, 3-((3-(1-(4-(2,3-Dimethylphenoxy)butanoyl)-1,2,3,4-tetrahydroquinolin-5-yl)benzyloxy)carbonylamino)-2-methylpropanoic acid], the EC50 was 608 nM.
As for `Cc1cccc(OCCCC(=O)N2CCCc3c(-c4cccc(COC(=O)NC[C@H](NC(=N)N)C(=O)O)c4)cccc32)c1C` [Example 168F, (S)-3-((3-(1-(4-(2,3-Dimethylphenoxy)butanoyl)-1,2,3,4-tetrahydroquinolin-5-yl)benzyloxy)carbonylamino)-2-guanidinopropanoic acid], the EC50 came out at 590 nM.
Take `Cc1cccc(OCCCC(=O)N2CCOc3c(-c4cnn(Cc5cccc(C(=O)N[C@@H](CC(=O)O)C(=O)O)c5Cl)c4)cccc32)c1C` [Example 624, (S)-2-(2-Chloro-3-((4-(4-(4-(2,3-dimethylphenoxy)butanoyl)-3,4-dihydro-2H-benzo[b][1,4]oxazin-8-yl)-1H-pyrazol-1-yl)methyl)benzamido)succinic acid]: the EC50 amounted to 1380 nM.
